Reference: patent publication US20250002473A1, “QUINOXALINE DERIVED SULFONAMIDES WITH EGFR DEGRADATION ACTIVITIES AND THEIR USES THEREOF” (Accutar Biotechnology Inc., priority 2023, published 2025)
Like-named read-outs stand apart in the source and are kept apart here.

Assays:
[1] = molecular target: T1, BaF3_ASV (EGFR_A776inASV) (Homo sapiens, UniProt P00533, DUP767-769); experiment: EGFR degradation assay (western blot), BaF3_ASV cells; type: cell-based; settings: for DC50: BaF3_ASV cells
T1 construct: expressed in transfected cells; host or cells: Ba/F3 (engineered)
T1 sequence (P00533 with tags, fused parts or gaps DUP767-769): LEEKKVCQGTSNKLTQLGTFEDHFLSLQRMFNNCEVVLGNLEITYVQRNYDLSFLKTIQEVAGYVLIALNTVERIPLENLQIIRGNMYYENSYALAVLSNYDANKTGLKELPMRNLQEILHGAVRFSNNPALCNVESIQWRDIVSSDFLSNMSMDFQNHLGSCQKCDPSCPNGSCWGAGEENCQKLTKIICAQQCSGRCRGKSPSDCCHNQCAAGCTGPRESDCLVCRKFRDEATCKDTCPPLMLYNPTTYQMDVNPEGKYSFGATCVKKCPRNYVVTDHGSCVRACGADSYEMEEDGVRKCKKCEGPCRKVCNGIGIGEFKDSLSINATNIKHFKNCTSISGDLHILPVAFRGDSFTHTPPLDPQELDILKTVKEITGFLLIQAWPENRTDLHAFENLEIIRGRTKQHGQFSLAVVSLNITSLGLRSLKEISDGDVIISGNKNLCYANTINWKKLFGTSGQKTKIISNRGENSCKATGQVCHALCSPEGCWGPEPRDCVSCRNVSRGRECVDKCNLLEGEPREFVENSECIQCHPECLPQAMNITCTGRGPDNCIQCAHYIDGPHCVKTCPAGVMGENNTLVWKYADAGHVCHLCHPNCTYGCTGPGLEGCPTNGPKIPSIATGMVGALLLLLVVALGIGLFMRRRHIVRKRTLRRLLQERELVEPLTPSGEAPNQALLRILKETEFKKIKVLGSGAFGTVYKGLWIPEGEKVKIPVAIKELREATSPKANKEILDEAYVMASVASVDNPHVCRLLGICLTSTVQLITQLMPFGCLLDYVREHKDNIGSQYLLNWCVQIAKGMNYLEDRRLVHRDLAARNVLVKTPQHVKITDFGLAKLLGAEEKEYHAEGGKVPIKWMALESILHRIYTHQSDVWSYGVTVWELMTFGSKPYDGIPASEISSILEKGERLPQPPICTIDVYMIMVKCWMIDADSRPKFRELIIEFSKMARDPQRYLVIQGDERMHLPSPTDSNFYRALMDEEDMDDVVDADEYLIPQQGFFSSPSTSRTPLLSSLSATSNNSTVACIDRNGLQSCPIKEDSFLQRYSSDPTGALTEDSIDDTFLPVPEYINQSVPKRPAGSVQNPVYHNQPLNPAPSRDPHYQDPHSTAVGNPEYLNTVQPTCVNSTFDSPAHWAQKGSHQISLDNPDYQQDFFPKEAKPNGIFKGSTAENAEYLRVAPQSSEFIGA
How it was run: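 Cells seeded overnight, then exposed to compounds for 24 h; lysates run on western blot, EGFR probed with tubulin loading control and fluorescent secondary detection. DC50 = concentration giving 50% EGFR degradation.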

BaF3_SVD = experiment: Cell growth inhibition assay (CellTiter-Glo), BaF3_SVD; type: cell-based
Experimental: Cells were seeded in a 96-well plate (Corning 3610) with 90 μL of culture medium per well, and plates were incubated at 37° C. overnight. A 1,000× DMSO stock solution of the desired compound was prepared the following day. A compound dilution plate was prepared by diluting the stock solution 1:100 in the corresponding cell culture medium, 10 μL of the diluted compound solution was added to each 96-well plate well containing the seeded cells. Then, the cells were cultured at 37° C. for three days following compound treatment, 100 μL of CellTiter-Glo reagents (Promega G7573) was added to each well of the 96-well plate. The content of the wells was mixed by shaking continuously for 10 min, and luminescence was measured using Envision (PerkinElmer). The data were analyzed with GraphPad Prism 9 (see FIG. 50).
Table 6, Table 7, and Table 8 list the cell growth inhibition results, where Gls0 represents the compound concentration to cause 50% cell growth inhibition in comparison with DMSO.

Structure (SMILES): CCc1cc(Nc2ncc(Br)c(Nc3ccc4nccnc4c3NS(C)(=O)=O)n2)c(OC)cc1N1CCC(N2CCN(CCc3cccc4c3n(CC)c(=O)n4C3CCC(=O)NC3=O)CC2)CC1 (centres unmarked) [Compound 11, N-(6-((5-bromo-2-((4-(4-(4-(2-(1-(2,6-dioxopiperidin-3-yl)-3-ethyl-2-oxo-2,3-dihydro-1H-benzo[d]imidazol-4-yl)ethyl)piperazin-1-yl)piperidin-1-yl)-5-ethyl-2-methoxyphenyl)amino)pyrimidin-4-yl)amino)quinoxalin-5-yl)methanesulfonamide]
- DC50 ([1]; compounds 24 h, western blot, read-out: BaF3_ASV DC50): 22.4 nM
- Potency in degrading EGFR exon20 insertion mutant form compared with Compound A (BaF3_ASV) ([1]; BaF3_ASV, comparison with Compound A, in words): significantly increased potency
- DC50 ([1]; Table 5, 24 h, read-out: DC50 (nM), 24 h, BaF3_ASV): 22.4 nM
- Potency in cell growth inhibition compared with Compound A (BaF3_SVD) (BaF3_SVD; BaF3_SVD, comparison with Compound A, in words): significantly increased potency
- GI50 (BaF3_SVD; Table 7, BaF3_SVD cells): 106 nM
